As usually defined, the IC50 is the concentration at which inhibition is half-maximal. A higher IC50 goes with weaker potency in that assay.

The text below walks through data of patent publication US20150329498A1, “IRAK INHIBITORS AND USES THEREOF” (Nimbus Iris, Inc., priority 2014, published 2015).

Where only a bound is given, the exact number is not on record here.

In test [1] the test system is IFNα production in human whole blood. The experiment in a line: R848 induced IFNα production in human whole blood. Format: cell-based. As to conditions: 0.2 uM R848, 20 hours. Here is the method:
(§1) Compounds of the present invention were also studied in in vitro cytokine production assays. Exemplary protocols follow.
(§2) Human whole blood and hWBC assays: Human whole blood was diluted by combining whole blood with no serum RPMI medium at a ratio of 1:1. 180 ul/well of the diluted whole blood/well was added to a 96 well plate. For WBC assay 100,000 cells/well were seeded in a 96-well plate with a volume of 100 ul/well. To make the compound master plate 9 ul of 30 mM compound solution was added into the wells in the assigned rows, then serial solutions with 4x dilutions were made in DMSO. That is, 9 uL of 100% DMSO were added into each of the rest wells and 3 uL of compound solution was taken from the one-step higher concentration solution and mixed well with the DMSO. An intermediate compound dilution plate was made by mixing 4 uL of the compound solution from the compound master plate with 196 uL of no serum RPMI medium. hWBC or human whole blood was treated for 0.5 hour by adding 20 uL/well of the compound and the control solutions from the intermediate compound plate to the cell plate. 80 uL/well or 20 uL/well of stimulant were then added to the human whole blood or hWBC respectively. […] The supernatants were then collected and cytokine levels were measured with ELISA for TNFα (R&D Systems, #DY210) and IFNα (R&D Systems, #41100-2) per manufacturer's instruction.

The test system of test [2] is IL8 production in THP-1 cells. Description: LPS induced IL8 production assay in THP-1 cells. Particulars: Homo sapiens, 300 ng/mL LPS, measured at 16 hours. It counts as cell-based. As to the method:
(§3) Provided compounds were also assayed in an LPS (Lipopolysaccharide) or R848 (TLR-7 agonist) induced cytokine (TNFα and IL8) production assay in THP-1 cells, human white blood cells (hWBC), and human whole blood. The exemplary protocol for this assay in THP-1 cells was as follows below.
(§4) THP-1 cells from ATCC (TIB-202) were cultured in RPMI Medium 1640 (Invitrogen, Cat No. A10491-01), 10% fetal bovine serum (Invitrogen, Cat No. 10099141, Lot No. 8172882) containing 100 U/mL Penicillin, 100 μg/mL streptomycin (Invitrogen, Cat No. 15140-122), and 50 uM 2-Mercaptoethanol (Invitrogen, Cat No. 21985023). LPS-EK ultra pure (Invivogen, Cat No. tlrl-peklps) was used to induce IL8 and TNFα production, that was detected in the cell culture supernatant by IL8 HTRF kit (Cisbio, Cat No. 62IL8PEB) and TNFα HTRF kit (Cisbio, Cat No. 62TNFPEB), as per manufacturer instructions. Cells were cultured in 96 well assay plates at 100,000 cells per well, and compounds diluted in final 0.3% DMSO were pre-incubated with cells for 1 hour prior to stimulation with 300 ng/mL LPS. Cytokine production in cell supernatant was measured at 5 hours for TNFα production, and at 16 hours for IL8 production and assessment of cell viability.
(§5) The compound numbers correspond to the compound numbers in Table 1. Compounds having an activity designated as “A” provided an IC50≦0.5 μM; compounds having an activity designated as “B” provided an IC50 of 0.5-5.0 μM; compounds having an activity designated as “C” provided an IC50>5.0 μM. “NA” stands for “not assayed.”

Test [3] relates to TNFα production in human whole blood. Description: LPS induced TNFα production in human whole blood. Format: cell-based. As to conditions: 1 ug/mL LPS, 20 hours. Here is the method: as §1, §2
Test [4] has as its system TNFα production in human white blood cells (hWBC). The experiment in a line: LPS induced TNFα production in hWBC. It counts as cell-based. Particulars: 1 ug/mL LPS, 20 hours. Here is the method: as §1, §2
Test [5] relates to TNFα production in human whole blood. Description: R848 induced TNFα production in human whole blood. It counts as cell-based. As to conditions: 1 uM R848, 20 hours. Here is the method: as §1, §2
Test [6] has as its system IFNα production in human white blood cells (hWBC). Description: CpG induced IFNα production in hWBC. Format: cell-based. As to conditions: 0.5 uM CpG, 20 hours. As to the method:
as §1, §2

For test [7], the system named is TNFα production in THP-1 cells. The experiment in a line: LPS induced TNFα production assay in THP-1 cells. It counts as cell-based. As to conditions: Homo sapiens, 300 ng/mL LPS, measured at 5 hours. Here is the method: as §3, §4, §5
Test [8] relates to LPS induced TNF alpha production. Description: Inhibition of LPS induced TNFα production in vivo. Particulars: female Lewis rats, dosed PO 2 hours prior to LPS IV, serum TNFα after 1 hr; minimum efficacious dose. As to the method: Selected compounds were tested in vivo in female Lewis rats for LPS induced TNF alpha production by dosing PO for 2 hours prior to LPS administration IV, followed by bleeding after 1 hr for measurement of TNFα produced in serum using ELISA (Biosource). […] Compounds having an activity designated as “A” provided a MED<5.0 mg/kg; compounds having an activity designated as “B” provided a MED of 5.0-20 mg/kg; compounds having an activity designated as “C” provided a MED of 20-50 mg/kg; compounds having an activity designated as “D” provided a MED of >50 mg/kg

Test [9] relates to TNFα production in human white blood cells (hWBC). The experiment in a line: R848 induced TNFα production in hWBC. As to conditions: 1 uM R848, 20 hours. Format: cell-based. Here is the method:
as §1, §2

Consider `N#Cc1ccc2ncnc(N[C@H]3CC[C@H](N4CCOCC4)CC3)c2c1` [Compound I-3, 4-(((1r,4r)-4-morpholinocyclohexyl)amino)quinazoline-6-carbonitrile], for which the concentration for half-maximal inhibition (IC50) in test [1] was 250 to 1000 nM; in test [2], not above 500 nM; in test [3], not above 250 nM; in test [4], 250 to 1000 nM; in test [5], 250 to 1000 nM; in test [6] it was 1000 to 10000 nM. For the same compound, the figures for the half-inhibitory concentration (IC50) in test [7] and in test [9] were not above 500 nM and not above 250 nM, respectively. Further, in test [8], the “MED (mg/kg)” value is on record as “C (MED of 20-50 mg/kg)”.

As to `N#Cc1ccc2ncnc(N[C@H]3CC[C@H](N4CCC5(CC4)CC5)CC3)c2c1` [Compound I-7, 4-(((1r,4r)-4-(6-azaspiro[2.5]octan-6-yl)cyclohexyl)amino)-quinazoline-6-carbonitrile], the IC50 in test [1] is 250 to 1000 nM; in test [2] it was not above 500 nM; in test [3] it was not above 250 nM; in test [4], 1000 to 10000 nM; in test [5], not above 250 nM; in test [6], not above 250 nM. In addition, the IC50 in test [7] was not above 500 nM; in test [9], not above 250 nM. The “MED (mg/kg)” value in [8] is given as “A (MED<5.0 mg/kg)”.
